Laboratory results taken from US8192962B2, “Processes for detecting toxic substances” (Daikin Industries, Ltd., priority 2001, dated 2012).

Test system: Mitochondria-located protein genes
Test: DNA chip mRNA expression in yeast, mitochondria-located protein genes (Table 2)
Assay type: cell-based, Saccharomyces cerevisiae S288C
Details: cells incubated two hours with the chemical substance
Outline: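 Value is the scanned fluorescence intensity ratio of exposed versus chemical-free cells. Log-phase S288C yeast in YPD at 25° C. received one toxic substance for two hours, dosed to slow growth without killing; Cy3/Cy5-labeled cDNA from oligo-dT-purified mRNA was hybridized to a whole-genome chip at 65° C.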

Compound: C=CC=O [(14), acrolein]
- The level of expressed mRNA in the presence of chemical substance/The level of expressed mRNA in the absence of chemical substance (yeast gene YAL039C): 1.2
- The level of expressed mRNA in the presence of chemical substance/The level of expressed mRNA in the absence of chemical substance (yeast gene YBL022C): 1.0
- The level of expressed mRNA in the presence of chemical substance/The level of expressed mRNA in the absence of chemical substance (yeast gene YBL030C): 0.8
- The level of expressed mRNA in the presence of chemical substance/The level of expressed mRNA in the absence of chemical substance (yeast gene YBL038W): 2.3
- The level of expressed mRNA in the presence of chemical substance/The level of expressed mRNA in the absence of chemical substance (yeast gene YBL099W): 0.6
- The level of expressed mRNA in the presence of chemical substance/The level of expressed mRNA in the absence of chemical substance (yeast gene YBR003W): 0.8
- The level of expressed mRNA in the presence of chemical substance/The level of expressed mRNA in the absence of chemical substance (yeast gene YBR044C): 0.9
- The level of expressed mRNA in the presence of chemical substance/The level of expressed mRNA in the absence of chemical substance (yeast gene YBR091C): 1.7
- The level of expressed mRNA in the presence of chemical substance/The level of expressed mRNA in the absence of chemical substance (yeast gene YBR122C): 1.2
- The level of expressed mRNA in the presence of chemical substance/The level of expressed mRNA in the absence of chemical substance (yeast gene YBR185C): 1.7
- The level of expressed mRNA in the presence of chemical substance/The level of expressed mRNA in the absence of chemical substance (yeast gene YBR221C): 0.8
- The level of expressed mRNA in the presence of chemical substance/The level of expressed mRNA in the absence of chemical substance (yeast gene YBR251W): 1.6
- The level of expressed mRNA in the presence of chemical substance/The level of expressed mRNA in the absence of chemical substance (yeast gene YBR282W): 1.4
- The level of expressed mRNA in the presence of chemical substance/The level of expressed mRNA in the absence of chemical substance (yeast gene YCL057W): 1.0
- The level of expressed mRNA in the presence of chemical substance/The level of expressed mRNA in the absence of chemical substance (yeast gene YCR046C): 1.3
- The level of expressed mRNA in the presence of chemical substance/The level of expressed mRNA in the absence of chemical substance (yeast gene YCR083W): 2.4
- The level of expressed mRNA in the presence of chemical substance/The level of expressed mRNA in the absence of chemical substance (yeast gene YDL067C): 1.4
- The level of expressed mRNA in the presence of chemical substance/The level of expressed mRNA in the absence of chemical substance (yeast gene YDL181W): 1.1
- The level of expressed mRNA in the presence of chemical substance/The level of expressed mRNA in the absence of chemical substance (yeast gene YDL198C): 1.7
- The level of expressed mRNA in the presence of chemical substance/The level of expressed mRNA in the absence of chemical substance (yeast gene YDR079W): 1.5
- The level of expressed mRNA in the presence of chemical substance/The level of expressed mRNA in the absence of chemical substance (yeast gene YDR178W): 1.5
- The level of expressed mRNA in the presence of chemical substance/The level of expressed mRNA in the absence of chemical substance (yeast gene YDR231C): 1.5
- The level of expressed mRNA in the presence of chemical substance/The level of expressed mRNA in the absence of chemical substance (yeast gene YDR258C): 1.5
- The level of expressed mRNA in the presence of chemical substance/The level of expressed mRNA in the absence of chemical substance (yeast gene YDR298C): 1.5
- The level of expressed mRNA in the presence of chemical substance/The level of expressed mRNA in the absence of chemical substance (yeast gene YDR347W): 1.5
- The level of expressed mRNA in the presence of chemical substance/The level of expressed mRNA in the absence of chemical substance (yeast gene YDR377W): 1.4
- The level of expressed mRNA in the presence of chemical substance/The level of expressed mRNA in the absence of chemical substance (yeast gene YDR529C): 1.5
- The level of expressed mRNA in the presence of chemical substance/The level of expressed mRNA in the absence of chemical substance (yeast gene YEL024W): 1.1
- The level of expressed mRNA in the presence of chemical substance/The level of expressed mRNA in the absence of chemical substance (yeast gene YEL039C): 1.4
- The level of expressed mRNA in the presence of chemical substance/The level of expressed mRNA in the absence of chemical substance (yeast gene YER178W): 0.9
- The level of expressed mRNA in the presence of chemical substance/The level of expressed mRNA in the absence of chemical substance (yeast gene YFL016C): 0.8
- The level of expressed mRNA in the presence of chemical substance/The level of expressed mRNA in the absence of chemical substance (yeast gene YGL018C): 1.2
- The level of expressed mRNA in the presence of chemical substance/The level of expressed mRNA in the absence of chemical substance (yeast gene YGL187C): 0.9
- The level of expressed mRNA in the presence of chemical substance/The level of expressed mRNA in the absence of chemical substance (yeast gene YGL191W): 1.6
- The level of expressed mRNA in the presence of chemical substance/The level of expressed mRNA in the absence of chemical substance (yeast gene YGR008C): 1.3
- The level of expressed mRNA in the presence of chemical substance/The level of expressed mRNA in the absence of chemical substance (yeast gene YGR028W): 1.2
- The level of expressed mRNA in the presence of chemical substance/The level of expressed mRNA in the absence of chemical substance (yeast gene YGR062C): 1.2
- The level of expressed mRNA in the presence of chemical substance/The level of expressed mRNA in the absence of chemical substance (yeast gene YGR076C): 2.3
- The level of expressed mRNA in the presence of chemical substance/The level of expressed mRNA in the absence of chemical substance (yeast gene YGR082W): 0.9
- The level of expressed mRNA in the presence of chemical substance/The level of expressed mRNA in the absence of chemical substance (yeast gene YGR174C): 1.6
- The level of expressed mRNA in the presence of chemical substance/The level of expressed mRNA in the absence of chemical substance (yeast gene YGR244C): 1.2
- The level of expressed mRNA in the presence of chemical substance/The level of expressed mRNA in the absence of chemical substance (yeast gene YHR008C): 1.6
- The level of expressed mRNA in the presence of chemical substance/The level of expressed mRNA in the absence of chemical substance (yeast gene YIL155C): 1.3
- The level of expressed mRNA in the presence of chemical substance/The level of expressed mRNA in the absence of chemical substance (yeast gene YJL096W): 2.1
- The level of expressed mRNA in the presence of chemical substance/The level of expressed mRNA in the absence of chemical substance (yeast gene YJL102W): 1.5
- The level of expressed mRNA in the presence of chemical substance/The level of expressed mRNA in the absence of chemical substance (yeast gene YJL133W): 0.7
- The level of expressed mRNA in the presence of chemical substance/The level of expressed mRNA in the absence of chemical substance (yeast gene YJL166W): 1.9
- The level of expressed mRNA in the presence of chemical substance/The level of expressed mRNA in the absence of chemical substance (yeast gene YJL180C): 1.4
- The level of expressed mRNA in the presence of chemical substance/The level of expressed mRNA in the absence of chemical substance (yeast gene YJR045C): 0.5
- The level of expressed mRNA in the presence of chemical substance/The level of expressed mRNA in the absence of chemical substance (yeast gene YJR077C): 0.7
